According to patent US20220117989A1, “COMPOSITIONS AND METHODS FOR INDUCING OR SUPPLEMENTING SOCS3 TO ABROGATE TUMOR GROWTH AND PROLIFERATIVE RETINOPATHY” (Children's Medical Center Corporation, priority 2019, published 2022):
Like-named read-outs stand apart in the source and are kept apart here.

Key:
[1] = tested on: Lewis lung carcinoma cell line; experiment: Lewis lung carcinoma (LLC) cells implanted in Socs3f/f and Socs3 Nestin ko mice, tumor growth curves; assay type: in vivo, mouse
[2] = tested on: tumor associated macrophages; experiment: FACS analysis of tumor macrophage populations (M1, M2, TIDC); assay type: in vivo, mouse
Description: The impact of the above-recited modes of Socs3 modulation upon monocyte differentiation was examined (FIGS. 20-26), employing FACS analysis of monocyte populations (FIG. 20 provides an overview of the FACS approach, where green cells were positively charged and therefore sorted towards an anode plate while negatively charged red cells were sorted toward a […]).

[3] = tested on: tumors; experiment: FACS of immune cells isolated from tumors treated with Naringenin or vehicle control; assay type: in vivo
Method: FIG. 45 is a series of plots quantifying the tumor volume, total tumor cells isolated from tumors, total CD45 positive cells and percentage of CD45 positive cells vs. total cells in control- or Naringenin-treated tumors. 1,2,3,4,5 represents the individual tumor in each group. In order to determine whether Naringenin influences the infiltrating of different immune cell types into tumors, fluorescence-activated cell sorting (FACS) was conducted on cells isolated from tumors treated with Naringenin or vehicle control.

[4] = tested on: Socs3; experiment: Socs3 levels after naringenin administration to tumor-bearing mice; assay type: in vivo, mouse
Description: The surprising efficacy of localized Socs3 overexpression in reducing tumor growth prompted interest in identifying compounds capable of up-regulating Socs3. One candidate molecule for up-regulation of Socs3 was Naringenin, a flavanone compound. […] Naringenin administration was also observed to have shrunk tumors at the day 12-13 timepoint examined, with 100% of tumors of Socs3f/f mice and 60% of tumors in Socs3 nestin conditional knockout mice observed to have shrunk at day 13 of the timecourse (FIGS. 18B and 18C).

[5] = tested on: LLC tumor; assay type: in vivo, mouse; settings: as compared to PBS-treated controls
Description: The effect of donepezil treatment was also examined in wild-type, heterozygote alpha-7 AChR knockout mice and homozygote alpha-7 AChR knockout mice (FIG. 40A).

[6] = tested on: B16F10-Luciferase Melanoma cell line; assay type: in vivo, mouse
[7] = tested on: tumor cell; settings: mouse, in vivo
[8] = agent administered to model mice, versus control animals

Molecule: O=C1NC[C@@]2(CN3CCC2CC3)O1 [AR-R17779, (2S)-2′H-spiro[4-azabicyclo[2.2.2]octane-2,5′-[1,3]oxazolidin]-2′-one]
- tumor growth, LLC tumor cells [1, 8]: significantly prevented tumor growth
- tumor size ([1]; day 10 post-implantation in model mice): decreased tumor size
- M1 macrophage levels ([2]; Socs3 neuronal deficient tumor): promoted M1 macrophage levels
- M2 macrophage levels ([2]; Socs3 neuronal deficient tumor): not promoting M2 macrophage levels
- M1 macrophage levels ([2]; wild-type tumor): promoted M1 macrophage levels
- M2 macrophage levels ([2]; wild-type tumor): did not change M2 macrophage levels

Molecule: O=C1C[C@@H](c2ccc(O)cc2)Oc2cc(O)cc(O)c21 [Naringenin]
- tumors observed to have shrunk, Socs3f/f mice ([1]; day 13 of the timecourse, Socs3f/f mice): 100%
- tumors observed to have shrunk, Socs3 nestin conditional knockout mice ([1]; day 13 of the timecourse, Socs3 nestin conditional knockout mice): 60%
- tumor growth, naringenin administration ([1]; treatment administered on day 4, Socs3-containing and Socs3 nestin conditional knockout mice): significantly decreased tumor growth
- population of CD4+ T cells in the tumors ([3]; Naringenin treatment): did not change
- percentage of CD45+ γδ T cells ([3]; Naringenin-treated group): increased
- CD8+ T cell recruitment into tumors ([3]; Naringenin-treated tumors): variations
- percentage of natural killer (NK) cells of CD45+ cells ([3]; compared to the control-treated group): higher
- tumors, based on tumor volume and total cells isolated from the entire tumors ([3]; compared with control group): significantly suppressed
- M1 macrophage levels ([2]; Socs3 neuronal deficient tumor): promote M1 macrophage levels
- M2 macrophage levels ([2]; Socs3 neuronal deficient tumor): reducing M2 macrophage levels
- M1 macrophage levels ([2]; wild-type tumor): promoted M1 macrophage levels
- M2 macrophage levels ([2]; wild-type tumor): did not change M2 macrophage levels
- Socs3 levels [4]: increased Socs3 levels

Molecule: COc1cc2c(cc1OC)C(=O)C(CC1CCN(Cc3ccccc3)CC1)C2 (stereo not shown) [donepezil]
- tumor growth, LLC tumor cells [1, 8]: prevented tumor growth
- tumor growth rate, homozygous alpha-7 AChR knockout mice [5]: robust reduction of tumor growth rate
- tumor growth, heterozygote alpha-7 AChR knockout mice [5]: significant reduction in tumor growth
- F4/80+/CD11c+ (M1 macrophage) cells ([2]; mouse, in vivo): expanded population
- TIDC population (CD45+; F4/80+; CD11c+ cells) ([2]; mouse, in vivo): expanded
- tumor growth, B16F10 tumor cells [6, 8]: prevented tumor growth

Molecule: Botulinum toxin [Botox]
- tumor growth, nestin-conditional Socs3 knockout mice [7]: no additional effect on tumor growth
- tumor growth, wild-type mice [7]: effectively mimicked the tumor growth effect of nestin-conditional Socs3 knockout
- tumor seeding [7]: promoted tumor seeding

Molecule: alpha-bungarotoxin [a-BTX]
- tumor growth, LLC tumor cells ([1]; mouse, in vivo): promoted tumor growth
- TIDC population (CD45+; F4/80+; CD11c+ cells) ([2]; mouse, in vivo): contracted
- tumor growth, B16F10 tumor cells ([6]; mouse, in vivo): promoted tumor growth
